What was measured:
Type in all cases: cell-based
[1] = tested on: Staphylococcus aureus 303; assay: In vitro antibacterial activity against resistant strains (MIC); settings: resistant strain Staphylococcus aureus 303; 2-fold agar dilution; methicillin resistant strains 48 hours at 30° C.
Procedure, shortened: (§1)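 Hoechst standard bacteria, […], were cultured at 37 °C for 18 h prior to measuring activity; resistant (methicillin) strains were cultivated longer, 48 h, and cooler, at 30 °C.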

[2] = tested on: Staphylococcus epidermidis 291; assay: as above; settings: resistant strain Staphylococcus epidermidis 291; 2-fold agar dilution; methicillin resistant strains 48 hours at 30° C.
Procedure, shortened: as §1

[3] = tested on: Staphylococcus aureus 697E; assay: as above; settings: resistant strain Staphylococcus aureus 697E; 2-fold agar dilution; methicillin resistant strains 48 hours at 30° C.
Procedure, shortened: as §1

[4] = tested on: Staphylococcus epidermidis 178; assay: as above; settings: resistant strain Staphylococcus epidermidis 178; 2-fold agar dilution; methicillin resistant strains 48 hours at 30° C.
Procedure, shortened: as §1

[5] = tested on: Staphylococcus aureus 692E; assay: as above; settings: resistant strain Staphylococcus aureus 692E; 2-fold agar dilution; methicillin resistant strains 48 hours at 30° C.
Procedure, shortened: as §1

[6] = tested on: Staphylococcus aureus 208E; assay: as above; settings: resistant strain Staphylococcus aureus 208E; 2-fold agar dilution; methicillin resistant strains 48 hours at 30° C.
Procedure, shortened: as §1

[7] = tested on: Staphylococcus aureus 179; assay: as above; settings: resistant strain Staphylococcus aureus 179; 2-fold agar dilution; methicillin resistant strains 48 hours at 30° C.
Procedure, shortened: as §1

[8] = tested on: Staphylococcus aureus 693E; assay: as above; settings: resistant strain Staphylococcus aureus 693E; 2-fold agar dilution; methicillin resistant strains 48 hours at 30° C.
Procedure, shortened: as §1

[9] = tested on: Staphylococcus aureus 694E; assay: as above; settings: resistant strain Staphylococcus aureus 694E; 2-fold agar dilution; methicillin resistant strains 48 hours at 30° C.
Procedure, shortened: as §1

[10] = tested on: Staphylococcus aureus 8236; assay: as above; settings: resistant strain Staphylococcus aureus 8236; 2-fold agar dilution; methicillin resistant strains 48 hours at 30° C.
Procedure, shortened: as §1

[11] = tested on: Staphylococcus aureus 293; assay: as above; settings: resistant strain Staphylococcus aureus 293; 2-fold agar dilution; methicillin resistant strains 48 hours at 30° C.
Procedure, shortened: as §1

[12] = tested on: Staphylococcus aureus 690E; assay: as above; settings: resistant strain Staphylococcus aureus 690E; 2-fold agar dilution; methicillin resistant strains 48 hours at 30° C.
Procedure, shortened: as §1

[13] = tested on: Staphylococcus aureus 256E; assay: as above; settings: resistant strain Staphylococcus aureus 256E; 2-fold agar dilution; methicillin resistant strains 48 hours at 30° C.
Procedure, shortened: as §1

[14] = tested on: Staphylococcus aureus 703E; assay: as above; settings: resistant strain Staphylococcus aureus 703E; 2-fold agar dilution; methicillin resistant strains 48 hours at 30° C.
Procedure, shortened: as §1

[15] = tested on: Staphylococcus aureus 241; assay: as above; settings: resistant strain Staphylococcus aureus 241; 2-fold agar dilution; methicillin resistant strains 48 hours at 30° C.
Procedure, shortened: as §1

[16] = tested on: Staphylococcus aureus 88E; assay: as above; settings: resistant strain Staphylococcus aureus 88E; 2-fold agar dilution; methicillin resistant strains 48 hours at 30° C.
Procedure, shortened: as §1

[17] = tested on: Staphylococcus aureus 121E; assay: as above; settings: resistant strain Staphylococcus aureus 121E; 2-fold agar dilution; methicillin resistant strains 48 hours at 30° C.
Procedure, shortened: as §1

[18] = tested on: Staphylococcus aureus 695E; assay: as above; settings: resistant strain Staphylococcus aureus 695E; 2-fold agar dilution; methicillin resistant strains 48 hours at 30° C.
Procedure, shortened: as §1

[19] = tested on: Staphylococcus aureus 701E; assay: as above; settings: resistant strain Staphylococcus aureus 701E; 2-fold agar dilution; methicillin resistant strains 48 hours at 30° C.
Procedure, shortened: as §1

Esherichia coli TEM = assay: In vitro antibacterial activity (MIC), agar dilution; settings: 2-fold agar dilution, Muller-Hinton agar, 18 hours at 37° C.
Procedure, shortened: as §1

Esherichia coli 1507E = assay: as above; settings: 2-fold agar dilution, Muller-Hinton agar, 18 hours at 37° C.
Procedure, shortened: as §1

[20] = tested on: Pseudomonas aeruginosa 1771; assay: as above; settings: 2-fold agar dilution, Muller-Hinton agar, 18 hours at 37° C.
Procedure, shortened: as §1

[21] = tested on: Klebsiella aerogenes 1522E; assay: as above; settings: 2-fold agar dilution, Muller-Hinton agar, 18 hours at 37° C.
Procedure, shortened: as §1

[22] = tested on: Enterobacter clocae 1321E; assay: as above; settings: 2-fold agar dilution, Muller-Hinton agar, 18 hours at 37° C.
Procedure, shortened: as §1

Salmonella typhimurium = assay: as above; settings: 2-fold agar dilution, Muller-Hinton agar, 18 hours at 37° C.
Procedure, shortened: as §1

Enterobacter clocae P99 = assay: as above; settings: 2-fold agar dilution, Muller-Hinton agar, 18 hours at 37° C.
Procedure, shortened: as §1

[23] = tested on: Pseudomonas aeruginosa 1771M; assay: as above; settings: Pseudomonas aeruginosa 1771M; 2-fold agar dilution, Muller-Hinton agar, 18 hours at 37° C.
Procedure, shortened: as §1

Esherichia coli 078 = assay: as above; settings: 2-fold agar dilution, Muller-Hinton agar, 18 hours at 37° C.
Procedure, shortened: as §1

[24] = tested on: Staphylococcus aureus SG511; assay: as above; settings: 2-fold agar dilution, Muller-Hinton agar, 18 hours at 37° C.
Procedure, shortened: as §1

[25] = tested on: Streptococcus pyogens 77A; assay: as above; settings: 2-fold agar dilution, Muller-Hinton agar, 18 hours at 37° C.
Procedure, shortened: as §1

[26] = tested on: Pseudomonas aeruginosa 9027; assay: as above; settings: 2-fold agar dilution, Muller-Hinton agar, 18 hours at 37° C.
Procedure, shortened: as §1

[27] = tested on: Staphylococcus aureus 285; assay: as above; settings: 2-fold agar dilution, Muller-Hinton agar, 18 hours at 37° C.
Procedure, shortened: as §1

[28] = tested on: Pseudomonas aeruginosa 1592E; assay: as above; settings: 2-fold agar dilution, Muller-Hinton agar, 18 hours at 37° C.
Procedure, shortened: as §1

[29] = tested on: Streptococcus faecium MD 8b; assay: as above; settings: 2-fold agar dilution, Muller-Hinton agar, 18 hours at 37° C.
Procedure, shortened: as §1

[30] = tested on: Streptococcus pyogens 308A; assay: as above; settings: 2-fold agar dilution, Muller-Hinton agar, 18 hours at 37° C.
Procedure, shortened: as §1

[31] = tested on: Staphylococcus aureus 503; assay: as above; settings: 2-fold agar dilution, Muller-Hinton agar, 18 hours at 37° C.
Procedure, shortened: as §1

Esherichia coli DC2 = assay: as above; settings: 2-fold agar dilution, Muller-Hinton agar, 18 hours at 37° C.
Procedure, shortened: as §1

Klebsiella oxytoca 1082E = assay: as above; settings: 2-fold agar dilution, Muller-Hinton agar, 18 hours at 37° C.
Procedure, shortened: as §1

Esherichia coli DC0 = assay: as above; settings: 2-fold agar dilution, Muller-Hinton agar, 18 hours at 37° C.
Procedure, shortened: as §1

CON=C1CN(c2c(F)c(N)c3c(=O)c(C(=O)O)cn(C4CC4)c3c2F)CC12CNC2.CS(=O)(=O)O [Example 5, 1-Cyclopropyl-5-amino-6,8-difluoro-7-[8-(methoxyimino)-2,6-diazaspiro[3,41]oct-6-yl]-4-oxo-1,4-dihydro-3-quinolinecarboxylic acid methanesulfonate]
minimum inhibitory concentration (MIC) [1]: 0.098 µg/mL | minimum inhibitory concentration (MIC) [2]: 0.391 µg/mL | minimum inhibitory concentration (MIC) [3]: <2 ng/mL | minimum inhibitory concentration (MIC) [4]: 0.391 µg/mL | minimum inhibitory concentration (MIC) [5]: 4 ng/mL | minimum inhibitory concentration (MIC) [6]: 7 ng/mL | minimum inhibitory concentration (MIC) [7]: 0.098 µg/mL | minimum inhibitory concentration (MIC) [8]: 7 ng/mL | minimum inhibitory concentration (MIC) [9]: 7 ng/mL | minimum inhibitory concentration (MIC) [10]: 0.098 µg/mL | minimum inhibitory concentration (MIC) [11]: 0.098 µg/mL | minimum inhibitory concentration (MIC) [12]: 7 ng/mL | minimum inhibitory concentration (MIC) [13]: 7 ng/mL | minimum inhibitory concentration (MIC) [14]: 7 ng/mL | minimum inhibitory concentration (MIC) [15]: 0.098 µg/mL | minimum inhibitory concentration (MIC) [16]: 7 ng/mL | minimum inhibitory concentration (MIC) [17]: 0.013 µg/mL | minimum inhibitory concentration (MIC) [18]: 7 ng/mL | minimum inhibitory concentration (MIC) [19]: 7 ng/mL | minimum inhibitory concentration (MIC) (Esherichia coli TEM): 0.013 µg/mL | minimum inhibitory concentration (MIC) (Esherichia coli 1507E): 7 ng/mL | minimum inhibitory concentration (MIC) [20]: 0.391 µg/mL | minimum inhibitory concentration (MIC) [21]: 0.025 µg/mL | minimum inhibitory concentration (MIC) [22]: 4 ng/mL | minimum inhibitory concentration (MIC) (Salmonella typhimurium): <2 ng/mL | minimum inhibitory concentration (MIC) (Enterobacter clocae P99): 7 ng/mL | minimum inhibitory concentration (MIC) [23]: 0.195 µg/mL | minimum inhibitory concentration (MIC) (Esherichia coli 078): <2 ng/mL | minimum inhibitory concentration (MIC) [24]: <2 ng/mL | minimum inhibitory concentration (MIC) [25]: <2 ng/mL | minimum inhibitory concentration (MIC) [26]: 0.781 µg/mL | minimum inhibitory concentration (MIC) [27]: 7 ng/mL | minimum inhibitory concentration (MIC) [28]: 0.391 µg/mL | minimum inhibitory concentration (MIC) [29]: 0.025 µg/mL | minimum inhibitory concentration (MIC) [30]: 0.025 µg/mL | minimum inhibitory concentration (MIC) [31]: <2 ng/mL | minimum inhibitory concentration (MIC) (Esherichia coli DC2): 0.013 µg/mL | minimum inhibitory concentration (MIC) (Klebsiella oxytoca 1082E): <2 ng/mL | minimum inhibitory concentration (MIC) (Esherichia coli DC0): 0.098 µg/mL

From patent publication US6552196B2, “Quinolone carboxylic acid derivatives” (Dong Wha Pharmaceutical Industrial Co., Ltd., priority 1997, dated 2003)
